# Measurements: US9181290B2, “Inhibition of biofilm formation by 1,2,3,4,6-penta-O-galloyl-D-glucopyranose” (CHANG GUNG UNIVERSITY, priority 2011, dated 2015)
# “Also recorded” adds a separate entry of the source.
# Legend:
# [1] = test system: S. aureus SA113Δica (ATCC 35556Δica::tet); assay: Biofilm formation by ica deletion mutant on polystyrene surface; assay type: cell-based, Staphylococcus aureus; conditions: 6 hrs
# Description: (§1) An overnight bacterial culture was 200-fold diluted with TSBg, and a 200 μL aliquot of the diluted culture was seeded into each well of 96-well polystyrene microtiter plates and incubated at 37° C. for a designated period of time. Cell growth was determined by measuring the absorbance at 578 nm (A578) with a microtiter plate reader (SpectraMax 340, Molecular Devices). After washing with PBS twice to remove suspended cells, the wells were stained with 0.1% (w/v) crystal violet in 10% ethanol and then treated with 30% acetic acid in dH2O, followed by detecting the absorbance at 595 nm (A595) with the microtiter plate reader to quantify the amount of biofilm formed on polystyrene surface.
# [2] = test system: S. aureus SA113; assay: CFU counting of cells adhered to polycarbonate surface; assay type: cell-based, Staphylococcus aureus
# From the text: To count the number of viable cells, the removed suspended cells were suspended in PBS by pipetting, and the resultant cell suspension was sonicated and serially diluted and subsequently plated on TSBg agar plate for colony forming unit (CFU) counting according to a method described earlier (S. Schlag et al. (2007), J. Bacteriol., 189:7911-7919).
# To quantify the amount of biofilm formed on polycarbonate surface, a 13-mm-diameter polycarbonate disc (Thermanox, Nalgene Nunc International, Rochester, N.Y., USA) was placed in a well of a 24-well microtiter plate, followed by the addition of 1 mL aliquot of the diluted bacterial culture. After incubation at 37° C. for a designated period of time, viable cells were washed off the surface of the polycarbonate disc with PBS and counted as described above, while the PBS-washed polycarbonate disc was subjected to crystal violet staining for biofilm quantification as described above.
# In addition to biofilm formation, the number of cells attached to polystyrene surface and polycarbonate surface were also counted.
# [3] = test system: S. aureus SA113 (ATCC 35556); assay: Bacterial growth (A578) and biofilm formation (crystal violet, A595) in 96-well polystyrene microtiter plates; assay type: cell-based, Staphylococcus aureus; conditions: for Biofilm (%) / Growth (%): 6 hours after seeding, control = 100%, mean ± SD
# Description: as §1
# An overnight culture of S. aureus SA113 was 200-fold diluted with TSBg, and a 200 μL aliquot of the diluted culture was seeded into each well of 96-well microtiter plates. Compounds purified from medicinal plants were added into each well at a designated concentration up to […]. At 6 hours after seeding, the amounts of biofilms formed in the wells were determined by crystal violet staining as described above. Cells treated with either distilled water or DMSO were used as a control. The amount of biofilm formation by the control group was set as 100%. Each experiment was repeated at least three times, with n=6 for each sample tested. The concentrations of compounds that inhibited 50% biofilm formation (IB50) were calculated based on logistic regression analysis results. Besides, the biofilm formation inhibition rate of a PGG-treated group was calculated using the following equation (1). Biofilm formation inhibition rate(%)=[(A−B)/A]×100 (1) wherein:
# In the wells of 96-well microtiter plates, S. aureus SA113 cells were cultured in TSBg broth in the presence of either β-PGG or α-PGG at different amounts (0, 1 and 10 μM). After incubation at 37° C. for 6 hrs, the cell density was determined by measuring the absorbance at 578 nm (A578), and the amounts of biofilm were quantified by crystal violet staining, with the amount of biofilm formed by untreated bacterial cells being set as 100%. Each experiment was repeated three times, with n=6 for each sample tested.
# To determine the effect(s) of (β-PGG upon bacterial growth and biofilm formation, β-PGG in various amounts (final concentration: 0, 1.56, 3.13, 6.25, 12.5, 25 and 50 μM) was added into the culture of S. aureus SA113 during seeding into the wells of polystyrene microtiter plates, followed by incubation at 37° C. for 6 hrs or 24 hrs. Cell growth was determined by measuring the absorbance at 578 nm, and the amount of biofilm formed on polystyrene surface was determined at 595 nm after crystal violet staining. In addition to polystyrene surface, the effect of β-PGG in inhibiting biofilm formation on polycarbonate surface was also examined according to the procedures as described in the preceding section entitled “Materials and methods.”
# [4] = test system: MRC-5 cells; assay: Cell viability assay (MTT); assay type: cell-based, human; conditions: concentrations below 50 μM, 24 hr treatment, 10% fetal calf serum
# Description: (§2) Human HepG2 cells (ATCC HB-8065) and 293T cells (ATCC CRL-11268) were cultured in Dulbecco's modified Eagle's medium (DMEM) supplemented with 10% (v/v) fetal calf serum. Human MRC-5 cells (ATCC CCL171) and HEp-2 cells (ATCC CCL-23) were cultured in Eagle's minimum essential medium (MEM) supplemented with 10% fetal calf serum. These four human cell lines were seeded into 24-well polystyrene tissue culture plates at a cell density of 1×10^5 cells/500 μL medium per well, respectively. After incubation at 37° C. for 24 hrs, β-PGG was added into each well in various amounts (0, 6.25, 12.5, 25 and 50 μM). After 24 hr treatment of β-PGG, toxicity of β-PGG to these human cell lines was determined using the 3-(4,5-dimethylthiazol-2-yl)-2,5-diphenyltetrazolium bromide (MTT) method (Xiangshu Piao et al. (2008), supra). Additionally, toxicity of β-PGG to the 293T cells was also determined in medium containing 0% and 2% fetal calf serum. Cells treated with DMSO were used as a negative control.
# [5] = test system: 293T cells; assay: Cell viability assay (MTT); assay type: cell-based, human
# Description: as §2
# [6] = test system: HepG2 cells; assay: Cell viability assay (MTT); assay type: cell-based, human; conditions: concentrations below 50 μM, 24 hr treatment, 10% fetal calf serum
# Description: as §2
# [7] = test system: HEp-2 cells; assay: Cell viability assay (MTT); assay type: cell-based, human; conditions: concentrations below 50 μM, 24 hr treatment, 10% fetal calf serum
# Description: as §2
structure (smiles),measurement,setting,value
"O=C(OC[C@H]1O[C@@H](OC(=O)c2cc(O)c(O)c(O)c2)[C@H](OC(=O)c2cc(O)c(O)c(O)c2)[C@@H](OC(=O)c2cc(O)c(O)c(O)c2)[C@@H]1OC(=O)c1cc(O)c(O)c(O)c1)c1cc(O)c(O)c(O)c1 [β-PGG, 1,2,3,4,6-penta-O-galloyl-β-D-glucopyranose]","effect on biofilm formation by the mutant, polystyrene surface",[1]; 1.56 μM,did not affect the biofilm formation
same,"decrease of the amount of biofilm, polystyrene surface",[1]; 3.13 μM,72%
same,number of cells attached to polycarbonate surface,"[2]; 6.25 μM, 20 min, DMSO control 7×10^5",2.9×10^5 CFU
same,number of cells attached to polycarbonate surface,"[2]; 6.25 μM, 40 min, DMSO control 1.1×10^6",2.3×10^5 CFU
same,number of cells attached to polycarbonate surface,"[2]; 6.25 μM, 60 min, DMSO control 2×10^6",3.5×10^5 CFU
same,number of cells attached to polycarbonate surface,"[2]; 12.5 μM, 20 min, DMSO control 7×10^5",1.0×10^5 CFU
same,number of cells attached to polycarbonate surface,"[2]; 12.5 μM, 40 min, DMSO control 1.1×10^6",8×10^4 CFU
same,number of cells attached to polycarbonate surface,"[2]; 12.5 μM, 60 min, DMSO control 2×10^6",5×10^4 CFU
same,viability of S. aureus SA113 cells (A578),"[3]; 1 μM and 10 μM, 6 hour incubation (anomer comparison)",did not affect the viability
same,reduction of biofilm formation,"[3]; 1 μM, 6 hour incubation (anomer comparison)",10%
same,killing of S. aureus SA113,[3]; 10 μM,did not kill S. aureus SA113
same,reduction of biofilm formation,"[3]; 10 μM, 6 hour incubation (anomer comparison)",65%
same,Biofilm (%),[3]; 10 μM,5 ± 1%
same,Growth (%),[3]; 10 μM,109 ± 8%
same,Growth (A578),"[3]; 12.5 μM β-PGG, 6 hr, 0 μM: 0.68 ± 0.02",0.65 ± 0.03
same,Biofilm (A595),"[3]; 12.5 μM β-PGG, 6 hr, 0 μM: 6.31 ± 0.34",0.26 ± 0.28
same,reduction of biofilm formation,"[3]; 100 μM, 6 hours",98%
same,Biofilm (%),[3]; 100 μM,2 ± 0%
same,Growth (%),[3]; 100 μM,69 ± 5 %
same,amounts of biofilm on polystyrene surface after 24 hr incubation,[3]; 24 hrs,approximately equal to those observed after 6 hr incubation
same,inhibition at 6.25 µM,"[3]; Staphylococcus aureus, ATCC35556, 6.25 μM, 6 hrs, read-out: inhibition of biofilm formation on polystyrene surface",93%
same,inhibition at 10 µM,"[3]; Staphylococcus aureus, ATCC35556, 10 μM, 6 hr incubation (screening)",95%
same,inhibition at 12.5 µM,"[3]; Staphylococcus aureus, ATCC35556, 12.5 μM, 6 hrs, read-out: inhibition of biofilm formation on polystyrene surface",96%
same,inhibition at 25 µM,"[3]; Staphylococcus aureus, ATCC35556, 25 μM, 6 hrs, read-out: inhibition of biofilm formation on polystyrene surface",97%
same,inhibition at 100 µM,"[3]; Staphylococcus aureus, ATCC35556, 100 μM, 6 hours",31%
same,IC50,"[3]; Staphylococcus aureus, ATCC35556, 6 hours, logistic regression, read-out: IB50 (concentration that inhibited 50% biofilm formation)",3.6 µM
same,viability of S. aureus SA113,"[3]; concentrations below 50 μM, 6 hours incubation",did not affect the viability; also recorded: did not kill S. aureus SA113 cells
same,Cell Growth (%),[3]; growth compared to untreated control at the concentration of IB50,100%
same,cell viability (MTT),[4],did not affect the viability
same,cell viability (MTT),"[5]; concentrations below 50 μM, 24 hr treatment, 10% fetal calf serum",did not affect the viability
same,influence of serum concentration on toxicity,[5]; medium with 2% or 0% fetal calf serum,no influence upon the toxicity
same,cell viability (MTT),[6],did not affect the viability
same,cell viability (MTT),[7],did not affect the viability
